Assay results from patent US10899758B2, “Inhibitors of the menin-MLL interaction” (Vitae Pharmaceuticals, LLC, priority 2016, dated 2021).
Like-named read-outs stand apart in the source and are kept apart here.

Legend:
[1] = target: T1, menin/MLL binding (biotinylated wild-type or mutated menin and MLL-AF9 fusion protein) (Homo sapiens, UniProt O00255); test: Assay 1 (Binding Assay): AlphaLISA menin/MLL binding; conditions: 5 nM biotinylated menin, MLL-AF9-FLAG lysate
T1 construct: biotinylated (1) wild-type menin or (2) mutated menin (described in Nature (2012) Vol. 482, pp. 542-548); fused on or other part: Biotin attached chemically (Sulfo-NHS-Biotin); no fused second protein is printed for menin
T1 sequence (O00255 1-459 limits assumed): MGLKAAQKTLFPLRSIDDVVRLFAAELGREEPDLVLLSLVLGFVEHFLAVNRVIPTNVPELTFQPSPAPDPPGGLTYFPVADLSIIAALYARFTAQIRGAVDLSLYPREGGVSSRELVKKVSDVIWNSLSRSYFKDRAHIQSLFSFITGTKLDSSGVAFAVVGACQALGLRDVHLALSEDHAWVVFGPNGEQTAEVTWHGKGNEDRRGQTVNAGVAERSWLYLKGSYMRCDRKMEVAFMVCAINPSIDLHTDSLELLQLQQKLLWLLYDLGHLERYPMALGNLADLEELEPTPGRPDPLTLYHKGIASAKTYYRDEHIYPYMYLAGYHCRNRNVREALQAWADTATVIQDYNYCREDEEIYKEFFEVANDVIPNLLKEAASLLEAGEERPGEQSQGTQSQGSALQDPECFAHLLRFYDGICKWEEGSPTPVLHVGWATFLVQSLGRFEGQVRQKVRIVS
Experimental: Potencies of inhibitor compounds against menin/MLL binding were assessed by AlphaLISA assay using biotinylated (1) wild-type menin or (2) mutated menin (described in Nature (2012) Vol. 482, pp. 542-548) and MLL-AF9 fusion protein bearing a FLAG epitope at its C-terminus. Menin proteins were expressed in E. coli and covalently modified with biotin using EZ-Link™ Sulfo-NHS-Biotin (ThermoFisher Cat. No. 21217) according to manufacturer's protocol. MLL1-1,396 fused to AF91-92 and the C-terminal FLAG peptide was expressed in HEK293 cells and used as a lysate cleared at 21,000×g for 10 min.
Compounds (2 μL of solutions in DMSO) were dispensed in white 96-well half-area plates (Corning Cat. No. 3693) and incubated for 30 min at RT with 5 nM biotinylated menin and appropriate amount of MLL-AF9-FLAG lysate in 40 μL of 50 mM Tris-HCl buffer pH 7.4 containing 5% (v/v) DMSO, 50 mM NaCl, 0.01% (w/v) bovine serum albumin (BSA) and 1 mM DTT. To this incubation mixture, 40 μl of AlphaLISA anti-FLAG acceptor (PerkinElmer Cat. No. AL112C) and streptavidin donor (PerkinElmer Cat. No. 6760002) beads (10 μg/mL each) was added and incubation continued at RT for 60 min. Alpha (amplified luminescent proximity homogeneous assay) signal was measured on an Envision multi-label plate reader at the end of the incubation. All steps were conducted under dim fluorescent light.
These percent inhibition values were regressed against compound concentrations in the assay using four parameter logit non-linear curve fitting (XLFit, IDBS). The IC50 values were derived from the curve fitting as inflection points on the dose-response curves and are set out in Table 14 below.

[2] = test system: human acute monocytic leukemia cell line MV-4-11; test: Assay 2 (Cell Proliferation Assay), ATP quantitation (CellTiter-Glo); assay type: cell-based; conditions: MV-4-11 cells, read-out: Assay 2 (EC50, inhibition of cell proliferation)
Experimental: Potencies of inhibitor compounds against cell proliferation was assessed against the human acute monocytic leukemia cell line MV-4-11 (ATCC® CRL-9591™) based on ATP quantitation. MV-4-11 cells or toxicity control HL-60 cells (ATCC® CCL-240™) were incubated in 96-well tissue culture plates (1.67×10^4 cells in 200 μL culture media containing 10% FBS per well) with or without test compound for 72 h at 37° C., 5% CO2. After incubation, each well was mixed by pipetting and 95 μL from each well was transferred to a well in 96-well black OptiPlate® plates (PerkinElmer). An equal volume of CellTiter-Glo® Luminescent Cell Viability Assay reagent (Promega) was added to each well, followed by mixing for 5 min on an orbital plate shaker. Luminescence was measured on a Wallac EnVision 2104 Multilabel Reader (PerkinElmer) to quantitate ATP. Percent inhibition of cell proliferation by test compounds was calculated based on uninhibited cell growth (DMSO) versus cells treated with a potent menin inhibitor at a concentration yielding at least 100×LD50.

Structure (SMILES)	IC50 [1] [nM]	EC50 ([2]; Homo sapiens, MV4-11, 72 h) [nM]	EC50 ([2]; 72 h) [nM]
CC(C)N(C)C(=O)c1cc(F)ccc1-n1cc(C2CCCN(C[C@H]3CC[C@H](NS(C)(=O)=O)CC3)CC2)c2ccncc21 (relative stereo) [Example 41, 5-fluoro-N-isopropyl-N-methyl-2-(3-(1-((trans-4-(methylsulfonamido)cyclohexyl)methyl)azepan-4-yl)-1H-pyrrolo[2,3-c]pyridin-1-yl)benzamide]	< 100	< 100	
CC(C)N(C)C(=O)c1cc(F)ccc1-n1cc(C2CCCN(Cc3ccc4[nH]c(=O)[nH]c4c3)C2)c2ccncc21 (single isomer, unassigned) [Example 43A, 5-fluoro-N-isopropyl-N-methyl-2-(3-(1-((2-oxo-2,3-dihydro-1H-benzo[d]imidazol-5-yl)methyl)piperidin-3-yl)-1H-pyrrolo[2,3-c]pyridin-1-yl)benzamide]	< 100	< 100	
CC(C)N(C)C(=O)c1cc(F)ccc1-n1cc([C@H]2CCCN(Cc3ccc4c(c3)[nH]c(=O)n4CCO)C2)c2ccncc21 (single isomer, unassigned) [Example 44A]	< 100	< 100	
CC(C)N(C)C(=O)c1cc(F)ccc1-n1cc(C2CCCN(Cc3ccc4c(c3)[nH]c(=O)n4CCO)C2)c2ccncc21 (single isomer, unassigned) [Example 44B, 5-fluoro-2-(3-(1-((1-(2-hydroxyethyl)-2-oxo-2,3-dihydro-1H-benzo[d]imidazol-5-yl)methyl)piperidin-3-yl)-1H-pyrrolo[2,3-c]pyridin-1-yl)-N-isopropyl-N-methylbenzamide]	< 100	< 100	
CCN(C(=O)c1cc(F)ccc1-n1cc(C2CCCN(Cc3ccc4[nH]c(=O)[nH]c4c3)C2)c2ccncc21)C(C)C (single isomer, unassigned) [Example 47A]	< 100	< 100	
CCN(C(=O)c1cc(F)ccc1-n1cc(C2CCCN(Cc3ccc4[nH]c(=O)[nH]c4c3)C2)c2ccncc21)C(C)C (single isomer, unassigned) [Example 47B]	< 100		< 100
CC(C)N(C)C(=O)c1cc(F)ccc1-n1cc(C2CCC(N3CCNC(=O)C3)CC2)c2ccncc21 (stereo not drawn) [Example 116, 5-fluoro-N-isopropyl-N-methyl-2-(3-(4-(3-oxopiperazin-1-yl)cyclohexyl)-1H-pyrrolo[2,3-c]pyridin-1-yl)benzamide]	100 to 1000		
CC(C)N(C)C(=O)c1cc(F)ccc1-n1cc([C@H]2CC[C@@H](N3CCOCC3)CC2)c2ccncc21 [Example 118, 5-fluoro-N-isopropyl-N-methyl-2-(3-(cis-4-morpholinocyclohexyl)-1H-pyrrolo[2,3-c]pyridin-1-yl)benzamide]	< 100		
CC(C)N(C)C(=O)c1cc(F)ccc1-n1cc([C@H]2CC[C@H](N3CCC(C(=O)O)CC3)CC2)c2ccncc21 [Example 119, 1-(trans-4-(1-(4-fluoro-2-(isopropyl(methyl)carbamoyl)phenyl)-1H-pyrrolo[2,3-c]pyridin-3-yl)cyclohexyl)piperidine-4-carboxylic acid]	100 to 1000		
CC(C)N(C)C(=O)c1cc(F)ccc1-n1cc([C@H]2CC[C@@H](N3CCC(C(=O)O)CC3)CC2)c2ccncc21 [Example 120, 1-(cis-4-(1-(4-fluoro-2-(isopropyl(methyl)carbamoyl)phenyl)-1H-pyrrolo[2,3-c]pyridin-3-yl)cyclohexyl)piperidine-4-carboxylic acid]	100 to 1000		
CC(C)N(C)C(=O)c1cc(F)ccc1-n1cc([C@H]2CC[C@H](NC(=O)c3ccccc3)CC2)c2ccncc21 [Example 129, 2-(3-(trans-4-benzamidocyclohexyl)-1H-pyrrolo[2,3-c]pyridine-1-yl)-5-fluoro-N-isopropyl-N-methylbenzamide]	≥ 1000		
CC(C)N(C)C(=O)c1cc(F)ccc1-n1cc([C@H]2CC[C@H](NC(=O)C3CCCCC3)CC2)c2ccncc21 [Example 130, 2-(3-(trans-4-(cyclohexanecarboxamido)cyclohexyl)-1H-pyrrolo[2,3-c]pyridin-1-yl)-5-fluoro-N-isopropyl-N-methylbenzamide]	≥ 1000		
CC(C)N(C)C(=O)c1cc(F)ccc1-n1cc(C2CCN(C(=O)C3Cc4ccccc4C3)CC2)c2ccncc21 [Example 132, 2-(3-(1-(2,3-dihydro-1H-indene-2-carbonyl)piperidin-4-yl)-1H-pyrrolo[2,3-c]pyridin-1-yl)-5-fluoro-N-isopropyl-N-methylbenzamide]	< 100		
CC(C)N(C)C(=O)c1cc(F)ccc1-n1cc(C2CCN(C(=O)Cc3ccccc3)CC2)c2ccncc21 [Example 133, 5-fluoro-N-isopropyl-N-methyl-2-(3-(1-(2-phenylacetyl)piperidin-4-yl)-1H-pyrrolo[2,3-c]pyridin-1-yl)benzamide]	100 to 1000		
CC(C)N(C)C(=O)c1cc(F)ccc1-n1c(=S)n(C2CCCN(Cc3ccc4[nH]c(=O)[nH]c4c3)C2)c2ccncc21 (stereo not drawn) [Example 135, 5-fluoro-N-isopropyl-N-methyl-2-(1-(1-((2-oxo-2,3-dihydro-1H-benzo[d]imidazol-5-yl)methyl)piperidin-3-yl)-2-thioxo-1,2-dihydro-3H-imidazo[4,5-c]pyridin-3-yl)benzamide]	100 to 1000		
CC(C)N(C)C(=O)c1cc(F)ccc1-n1cc(C2CCN(C(=O)OC(C)(C)C)CC2)c2ccncc21 [Int. 1, tert-butyl 4-(1-(4-fluoro-2-(isopropyl(methyl)carbamoyl)phenyl)-1H-pyrrolo[2,3-c]pyridin-3-yl)piperidine-1-carboxylate]	100 to 1000		
CC(C)N(C)C(=O)c1cc(F)ccc1-n1cc(C2CCCN(C(=O)OC(C)(C)C)C2)c2ccncc21 (stereo not drawn) [Int. 2, tert-butyl 3-(1-(4-fluoro-2-(isopropyl(methyl)carbamoyl)phenyl)-1H-pyrrolo[2,3-c]pyridin-3-yl)piperidine-1-carboxylate]	≥ 1000		
CC(C)N(C(=O)c1cc(F)ccc1-n1cc(C2CCCN(C(=O)OC(C)(C)C)C2)c2ccncc21)C(C)C (stereo not drawn) [Int. 10, tert-butyl 3-(1-(2-(diisopropylcarbamoyl)-4-fluorophenyl)-1H-pyrrolo[2,3-c]pyridin-3-yl)piperidine-1-carboxylate]	≥ 1000		
CC(C)N(C)C(=O)c1cc(F)ccc1-n1cc(C2C[C@@H](C)N[C@@H](C)C2)c2ccncc21 (stereo partly drawn) [Int. 13, 2-(3-((2S,6R)-2,6-dimethylpiperidin-4-yl)-1H-pyrrolo[2,3-c]pyridin-1-yl)-5-fluoro-N-isopropyl-N-methylbenzamide]	100 to 1000		
CC(C)N(C)C(=O)c1cc(F)ccc1-n1cc(C2CCC3(CC2)OCCO3)c2ccncc21 [Int. 17A, 2-(3-(1,4-dioxaspiro[4.5]decan-8-yl)-1H-pyrrolo[2,3-c]pyridin-1-yl)-5-fluoro-N-isopropyl-N-methylbenzamide]	≥ 1000		
CC(C)N(C)C(=O)c1cc(F)ccc1-n1cc(-c2ccc3c(c2)CCNC3)c2ccncc21 [Int. 17C, 5-fluoro-N-isopropyl-N-methyl-2-(3-(1,2,3,4-tetrahydroisoquinolin-6-yl)-1H-pyrrolo[2,3-c]pyridin-1-yl)benzamide]	100 to 1000		
